# Target: WDR5 (Homo sapiens (Human), UniProt P61964)
# Assay: Surface Plasmon Resonance (SPR) assay, KD and residence time
# Type: binding
# Conditions: surface plasmon resonance (SPR) assay; read-out: WDR5 binding affinity (KD)
row,Kd,SMILES
1,2.07 nM,"C[C@@H]1CN(c2cc(F)c(-c3cnc(N4CCOCC4)nc3)cc2NC(=O)c2cc(Cl)cc(Cl)c2)C[C@H](C)N1C [Example 76, 3,5-dichloro-N-[4-fluoro-5-(2-morpholin-4-ylpyrimidin-5-yl)-2-[(3R,5S)-3,4,5-trimethylpiperazin-1-yl]phenyl]benzamide]"
2,1.24 nM,"C[C@@H]1CN(c2cc(F)c(C3=CCN(C(=O)OC(C)(C)C)CC3)cc2NC(=O)c2c[nH]c(=O)cc2C(F)(F)F)C[C@H](C)N1C [Example 143, tert-butyl 4-[2-fluoro-5-[[6-oxo-4-(trifluoromethyl)-1H-pyridine-3-carbonyl]amino]-4-[(3R,5S)-3,4,5-trimethylpiperazin-1-yl]phenyl]-3,6-dihydro-2H-pyridine-1-carboxylate]"
3,1.67 nM,"CCOC(=O)c1ccnc(N2CC=C(c3cc(NC(=O)c4c[nH]c(=O)cc4C(F)(F)F)c(N4C[C@@H](C)N(C)[C@@H](C)C4)cc3F)CC2)n1 [Example 276, ethyl 2-[4-[2-fluoro-5-[[6-oxo-4-(trifluoromethyl)-1H-pyridine-3-carbonyl]amino]-4-[(3R,5S)-3,4,5-trimethylpiperazin-1-yl]phenyl]-3,6-dihydro-2H-pyridin-1-yl]pyrimidine-4-carboxylate]"
4,11.1 nM,"CC1CN(c2cc(Cl)c(-c3cnc(N4CCOCC4)nc3)cc2NC(=O)c2c[nH]c(=O)cc2C(F)(F)F)CCN1C (stereo in doubt) [Example 81, N-[4-chloro-5-(2-morpholin-4-ylpyrimidin-5-yl)-2-[(3R)-3,4-dimethylpiperazin-1-yl]phenyl]-6-oxo-4-(trifluoromethyl)-1H-pyridine-3-carboxamide]"
5,6.83 nM,"C[C@@H]1CN(c2cc(F)c(-c3ccc(OC(F)(F)F)cc3)cc2NC(=O)c2c[nH]c(=O)cc2C(F)(F)F)C[C@H](C)N1C [Example 145, N-[4-fluoro-2-[(3R,5S)-3,4,5-trimethylpiperazin-1-yl]-5-[4-(trifluoromethoxy)phenyl]phenyl]-6-oxo-4-(trifluoromethyl)-1H-pyridine-3-carboxamide]"
6,1.04 nM,"C[C@@H]1CN(c2cc(F)c(C3=CCN(c4ncc(F)cn4)CC3)cc2NC(=O)c2c[nH]c(=O)cc2C(F)(F)F)C[C@H](C)N1C [Example 367, N-[4-fluoro-5-[1-(5-fluoropyrimidin-2-yl)-3,6-dihydro-2H-pyridin-4-yl]-2-[(3R,5S)-3,4,5-trimethylpiperazin-1-yl]phenyl]-6-oxo-4-(trifluoromethyl)-1H-pyridine-3-carboxamide]"
7,2.08 nM,"CC1COCCN1c1ncc(-c2cc(NC(=O)c3c[nH]c(=O)cc3C(F)(F)F)c(N3C[C@@H](C)N(C)[C@@H](C)C3)cc2F)cn1 (stereo in doubt) [Example 338, N-[4-fluoro-5-[2-[(3R)-3-methylmorpholin-4-yl]pyrimidin-5-yl]-2-[(3S,5R)-3,4,5-trimethylpiperazin-1-yl]phenyl]-6-oxo-4-(trifluoromethyl)-1H-pyridine-3-carboxamide]"
8,33.8 nM,"COc1cccc(C(=O)Nc2cc(-c3cnc(N4CCOCC4)nc3)c(F)cc2N2C[C@@H](C)N(C)[C@@H](C)C2)c1 [Example 89, N-[4-fluoro-5-(2-morpholin-4-ylpyrimidin-5-yl)-2-[(3R,5S)-3,4,5-trimethylpiperazin-1-yl]phenyl]-3-methoxybenzamide]"
9,0.789 nM,"C[C@@H]1CN(c2cc(F)c(-c3cnc(N4CCN(C(=O)CCC(=O)O)CC4)nc3)cc2NC(=O)c2c[nH]c(=O)cc2C(F)(F)F)C[C@H](C)N1C [Example 306, 4-[4-[5-[2-fluoro-5-[[6-oxo-4-(trifluoromethyl)-1H-pyridine-3-carbonyl]amino]-4-[(3R,5S)-3,4,5-trimethylpiperazin-1-yl]phenyl]pyrimidin-2-yl]piperazin-1-yl]-4-oxobutanoic acid]"

# Same assay, conditions: surface plasmon resonance (SPR); read-out: WDR5 binding affinity (KD)
row,Kd,SMILES
1,4.92 nM,"C[C@@H]1CN(c2cc(F)c(-c3ccnc(N4CCO[C@@H](C)C4)n3)cc2NC(=O)c2cn(C)c(=O)cc2C(F)(F)F)C[C@H](C)N1C (racemic) [Example 694, N-[4-fluoro-5-[2-[(2R)-2-methylmorpholin-4-yl]pyrimidin-4-yl]-2-[(3S,5R)-3,4,5-trimethylpiperazin-1-yl]phenyl]-1-methyl-6-oxo-4-(trifluoromethyl)pyridine-3-carboxamide]"
2,7.46 nM,"C[C@@H]1CN(c2cc(F)c(-c3ccc(F)c(C(N)=O)c3)cc2NC(=O)c2cn(C)c(=O)cc2C(F)(F)F)C[C@H](C)N1C [Example 589, N-[5-(3-carbamoyl-4-fluorophenyl)-4-fluoro-2-[(3R,5S)-3,4,5-trimethylpiperazin-1-yl]phenyl]-1-methyl-6-oxo-4-(trifluoromethyl)pyridine-3-carboxamide]"
3,3.81 nM,"CC1CN(c2cc(F)c(C3=CCCN(C(=O)OC4CC(F)(F)C4)C3)cc2NC(=O)c2ccc(F)cc2C(F)(F)F)CCN1C (stereo in doubt) [Example 706, (3,3-difluorocyclobutyl) 5-[2-fluoro-5-[[4-fluoro-2-(trifluoromethyl)benzoyl]amino]-4-[(3R)-3,4-dimethylpiperazin-1-yl]phenyl]-3,6-dihydro-2H-pyridine-1-carboxylate]"
4,9.71 nM,"CCCN1CC[C@@H]2CN(c3cc(F)c(-c4cnc(N5CCOCC5)nc4)cc3NC(=O)c3c[nH]c(=O)cc3C(F)(F)F)C[C@@H]21 (stereo in doubt) [Example 476, N-[4-fluoro-5-(2-morpholin-4-ylpyrimidin-5-yl)-2-[(3aR,6aR)-1-propyl-2,3,3a,4,6,6a-hexahydropyrrolo[2,3-c]pyrrol-5-yl]phenyl]-6-oxo-4-(trifluoromethyl)-1H-pyridine-3-carboxamide]"
5,5.02 nM,"CC1CN(c2cc(F)c(-c3cccc(N4CCOCC4)n3)cc2NC(=O)c2cn(C)c(=O)cc2C(F)F)CCN1C (stereo in doubt) [Example 672, 4-(difluoromethyl)-N-[4-fluoro-5-(6-morpholin-4-ylpyridin-2-yl)-2-[(3R)-3,4-dimethylpiperazin-1-yl]phenyl]-1-methyl-6-oxopyridine-3-carboxamide]"
6,3.26 nM,"C[C@@H]1CN(c2cc(F)c(-c3ccc4scnc4c3)cc2NC(=O)c2c[nH]c(=O)cc2C(F)(F)F)C[C@H](C)N1C [Example 678, N-[5-(1,3-benzothiazol-5-yl)-4-fluoro-2-[(3R,5S)-3,4,5-trimethylpiperazin-1-yl]phenyl]-6-oxo-4-(trifluoromethyl)-1H-pyridine-3-carboxamide]"
7,11.9 nM,"C[C@@H]1CN(c2cc(F)c(-c3cc(C(N)=O)c(F)cc3F)cc2NC(=O)c2c[nH]c(=O)cc2C(F)F)C[C@H](C)N1C [Example 633, N-[5-(5-carbamoyl-2,4-difluorophenyl)-4-fluoro-2-[(3R,5S)-3,4,5-trimethylpiperazin-1-yl]phenyl]-4-(difluoromethyl)-6-oxo-1H-pyridine-3-carboxamide]"
8,4.23 nM,"C[C@@H]1CN(c2cc(F)c(-c3ccc(C(=O)NCC4CC4)c(F)c3)cc2NC(=O)c2c[nH]c(=O)cc2C(F)(F)F)C[C@H](C)N1C [Example 735, N-[5-[4-(cyclopropylmethylcarbamoyl)-3-fluorophenyl]-4-fluoro-2-[(3R,5S)-3,4,5-trimethylpiperazin-1-yl]phenyl]-6-oxo-4-(trifluoromethyl)-H-pyridine-3-carboxamide]"
9,1.41 nM,"C[C@@H]1CN(c2ncc(-c3cc(NC(=O)c4c[nH]c(=O)cc4C(F)(F)F)c(N4CCC(N(C)C)C4)cc3F)cn2)C[C@H](C)O1 (stereo in doubt) [Example 417, N-[4-fluoro-2-[(3S)-3-(dimethylamino)pyrrolidin-1-yl]-5-[2-[(2R,6S)-2,6-dimethylmorpholin-4-yl]pyrimidin-5-yl]phenyl]-6-oxo-4-(trifluoromethyl)-1H-pyridine-3-carboxamide]"
10,1.15 nM,"C[C@@H]1CN(c2cc(F)c(-c3cnc(N4CCOCC4)nc3)cc2NC(=O)c2cc(N)c(F)cc2C(F)(F)F)C[C@H](C)N1C [Example 502, 5-amino-4-fluoro-N-[4-fluoro-5-(2-morpholin-4-ylpyrimidin-5-yl)-2-[(3R,5S)-3,4,5-trimethylpiperazin-1-yl]phenyl]-2-(trifluoromethyl)benzamide]"
11,1.36 nM,"C[C@@H]1CN(c2cc(F)c(-c3cnc(N4CCOCC4)nc3)cc2NC(=O)c2ccc(F)cc2C(F)F)C[C@H](C)N1C [Example 722, 2-(difluoromethyl)-4-fluoro-N-[4-fluoro-5-(2-morpholin-4-ylpyrimidin-5-yl)-2-[(3R,5S)-3,4,5-trimethylpiperazin-1-yl]phenyl]benzamide]"
12,1.84 nM,"C[C@@H]1CN(c2cc(F)c(C3=CCCN(c4ncc(C#N)s4)C3)cc2NC(=O)c2c[nH]c(=O)cc2C(F)F)C[C@H](C)N1C [Example 687, N-[5-[1-(5-cyano-1,3-thiazol-2-yl)-3,6-dihydro-2H-pyridin-5-yl]-4-fluoro-2-[(3R,5S)-3,4,5-trimethylpiperazin-1-yl]phenyl]-4-(difluoromethyl)-6-oxo-1H-pyridine-3-carboxamide]"
13,12.3 nM,"C[C@@H]1CN(c2cc(F)c(-c3ccc4scnc4c3)cc2NC(=O)c2cn(C)c(=O)cc2C(F)F)C[C@H](C)N1C [Example 683, N-[5-(1,3-benzothiazol-5-yl)-4-fluoro-2-[(3R,5S)-3,4,5-trimethylpiperazin-1-yl]phenyl]-4-(difluoromethyl)-1-methyl-6-oxopyridine-3-carboxamide]"
14,1.98 nM,"C[C@@H]1CN(c2cc(F)c(C3=CCN(C(=O)OC4(C)CCC4)C3)cc2NC(=O)c2c[nH]c(=O)cc2C(F)F)C[C@H](C)N1C [Example 630, 1-Methylcyclobutyl 3-(5-(4-(difluoromethyl)-6-oxo-1,6-dihydropyridine-3-carboxamido)-2-fluoro-4-((3S,5R)-3,4,5-trimethylpiperazin-1-yl)phenyl)-2,5-dihydro-1H-pyrrole-1-carboxylate]"
15,0.58 nM,"CC1CN(c2cc(F)c(C3=CCN(c4ccnc(C#N)n4)CC3)cc2NC(=O)c2c[nH]c(=O)cc2C(F)F)CCN1C (stereo in doubt) [Example 708, N-[5-[1-(2-cyanopyrimidin-4-yl)-3,6-dihydro-2H-pyridin-4-yl]-4-fluoro-2-[(3R)-3,4-dimethylpiperazin-1-yl]phenyl]-4-(difluoromethyl)-6-oxo-1H-pyridine-3-carboxamide]"
